# Data as given in patent US6770597B2, “Benzohydrazide derivatives as herbicides and desiccant compositions containing them” (Ishihara Sangyo Kaisha, Ltd., priority 2002, dated 2004).
# Key:
# Format in all cases: in vivo
# [1] = system: field corn (Zea mays L., var. Dekalb 535, CORN); assay: Greenhouse herbicide screen, pre-emerge application, crop damage rating; conditions: PRE emergent, 14 days after application, rating scale 0-100
# Text: (§1) A standard greenhouse herbicide activity screening system was used to evaluate the herbicidal efficacy and crop safety of these test compounds. Seven broadleaf weed species including redroot pigweed (Amaranthus retrofiexus, AMARE), velvetleaf (Abutilon theophrasti, ABUTH), sicklepod (Cassia obtusifolia, CASOB), ivyleaf morningglory (Ipomoea hederacea, IPOHE), lambsquarters (Chenopodium album, CHEAL), common ragweed (Ambrosia artemisiifolia L., AMBEL), and cocklebur (Xanthium strumarium, XANST) were used as test species. Four grass weed species including green foxtail (Setaria viridis, SETVI), barnyardgrass (Echinochloa crus-galli, ECHCG), johnsongrass (Sorghum halepense, SORHA), and large crabgrass (Digitaria sanguinalis, DIGSA) were also used. In addition, four crop species, field corn (Zea mays L., var. Dekalb 535, CORN), soybean (Glycine max L., var. Pella 86, SOY), upland rice (Oryza sp., var.Cocodrie, RICE) and wheat (Triticum aestivum L.) were included.
# (§2) All plants were grown in 10 cm square plastic pots which were filled with a sandy loam soil mix. For pre-emerge tests, seeds were planted one day prior to application of the test compounds. For post-emerge tests, seeds were planted 8-21 days prior to the test to allow emergence and good foliage development prior to application of the test substances. At the time of the post-emerge application, plants of all species were usually at the 2-3 leaf stage of development.
# (§3) All test compounds were dissolved in acetone and applied to the test units in a volume of 187 l/ha. Test materials were applied at rates ranging from 15 g ai/ha to 1000 g ai/ha using a track sprayer equipped with a TJ8001E even flow flat fan spray nozzle. Plants were arranged on a shelf so that the top of the canopy (post-emerge) or top of the soil surface (pre-emerge) was 40-45 cm below the nozzle. Pressurized air was used to force the test solution through the nozzle as it was mechanically advanced (via electrically driven chain drive) over the top of all test plants/pots. This application simulates a typical commercial field herbicide application.
# (§4) Pre-emergence tests were top watered immediately after treatment to incorporate the test materials, then routinely top-watered for normal growth. Post-emerge test units were always bottom-watered.
# (§5) At 14 days after application of the test materials, phytotoxicity ratings were recorded. A rating scale of 0-100 was used as previously described in Research Methods in Weed Science, 2nd edition, B. Truelove, Ed., Southern Weed Science Society, Auburn University, Auburn, Ala., 1977. Briefly, “0” corresponds to no damage and “100” corresponds to complete death of all plants in the test unit. This scale was used both to determine efficacy against weed species and damage to crop species. Herbicide activity data for various compounds of this invention, which are shown by compound No. in Tables 1-12, are shown in Tables 13 and 14.
# [2] = system: upland rice (Oryza sp., var.Cocodrie, RICE); assay: as above; conditions: PRE emergent, 14 days after application, rating scale 0-100
# Text: as §1, §2, §3, §4, §5
# [3] = system: barnyardgrass (Echinochloa crus-galli, ECHCG); assay: Greenhouse herbicide screen, post-emerge application, phytotoxicity rating; conditions: POST emergent, 14 days after application, scale 0-100
# Text: as §1, §2, §3, §4, §5
# [4] = system: lambsquarters (Chenopodium album, CHEAL); assay: as above; conditions: POST emergent, 14 days after application, scale 0-100
# Text: as §1, §2, §3, §4, §5
# [5] = system: large crabgrass (Digitaria sanguinalis, DIGSA); assay: as above; conditions: POST emergent, 14 days after application, scale 0-100
# Text: as §1, §2, §3, §4, §5
# [6] = system: ivyleaf morningglory (Ipomoea hederacea, IPOHE); assay: as above; conditions: POST emergent, 14 days after application, scale 0-100
# Text: as §1, §2, §3, §4, §5
# [7] = system: redroot pigweed (Amaranthus retrofiexus, AMARE); assay: as above; conditions: POST emergent, 14 days after application
# Text: as §1, §2, §3, §4, §5
# [8] = system: green foxtail (Setaria viridis, SETVI); assay: as above; conditions: POST emergent, 14 days after application, scale 0-100
# Text: as §1, §2, §3, §4, §5
# [9] = system: johnsongrass (Sorghum halepense, SORHA); assay: as above; conditions: POST emergent, 14 days after application, scale 0-100
# Text: as §1, §2, §3, §4, §5
# [10] = system: sicklepod (Cassia obtusifolia, CASOB); assay: as above; conditions: POST emergent, 14 days after application, scale 0-100
# Text: as §1, §2, §3, §4, §5
# [11] = system: velvetleaf (Abutilon theophrasti, ABUTH); assay: as above; conditions: POST emergent, 14 days after application, scale 0-100
# Text: as §1, §2, §3, §4, §5
# [12] = system: common ragweed (Ambrosia artemisiifolia L., AMBEL); assay: as above; conditions: POST emergent, 14 days after application, scale 0-100
# Text: as §1, §2, §3, §4, §5
# [13] = system: cocklebur (Xanthium strumarium, XANST); assay: as above; conditions: POST emergent, 14 days after application, scale 0-100
# Text: as §1, §2, §3, §4, §5
# [14] = system: barnyardgrass (Echinochloa crus-galli, ECHCG); assay: Greenhouse herbicide screen, pre-emerge application, phytotoxicity rating; conditions: PRE emergent, 14 days after application, rating scale 0-100
# Text: as §1, §2, §3, §4, §5
# [15] = system: lambsquarters (Chenopodium album, CHEAL); assay: as above; conditions: PRE emergent, 14 days after application, rating scale 0-100
# Text: as §1, §2, §3, §4, §5
# [16] = system: large crabgrass (Digitaria sanguinalis, DIGSA); assay: as above; conditions: PRE emergent, 14 days after application, rating scale 0-100
# Text: as §1, §2, §3, §4, §5
# [17] = system: ivyleaf morningglory (Ipomoea hederacea, IPOHE); assay: as above; conditions: PRE emergent, 14 days after application, rating scale 0-100
# Text: as §1, §2, §3, §4, §5
# [18] = system: redroot pigweed (Amaranthus retrofiexus, AMARE); assay: as above; conditions: PRE emergent, 14 days after application, rating scale 0-100
# Text: as §1, §2, §3, §4, §5
# [19] = system: green foxtail (Setaria viridis, SETVI); assay: as above; conditions: PRE emergent, 14 days after application, rating scale 0-100
# Text: as §1, §2, §3, §4, §5
# [20] = system: johnsongrass (Sorghum halepense, SORHA); assay: as above; conditions: PRE emergent, 14 days after application, rating scale 0-100
# Text: as §1, §2, §3, §4, §5
# [21] = system: sicklepod (Cassia obtusifolia, CASOB); assay: as above; conditions: PRE emergent, 14 days after application, rating scale 0-100
# Text: as §1, §2, §3, §4, §5
# [22] = system: velvetleaf (Abutilon theophrasti, ABUTH); assay: as above; conditions: PRE emergent, 14 days after application, rating scale 0-100
# Text: as §1, §2, §3, §4, §5
# [23] = system: common ragweed (Ambrosia artemisiifolia L., AMBEL); assay: as above; conditions: PRE emergent, 14 days after application, rating scale 0-100
# Text: as §1, §2, §3, §4, §5
# [24] = system: cocklebur (Xanthium strumarium, XANST); assay: as above; conditions: PRE emergent, 14 days after application, rating scale 0-100
# Text: as §1, §2, §3, §4, §5
# [25] = system: field corn (Zea mays L., var. Dekalb 535, CORN); assay: Greenhouse herbicide screen, post-emerge application, crop damage rating; conditions: POST emergent, 14 days after application, scale 0-100
# Text: as §1, §2, §3, §4, §5
# [26] = system: upland rice (Oryza sp., var.Cocodrie, RICE); assay: as above; conditions: POST emergent, 14 days after application, scale 0-100
# Text: as §1, §2, §3, §4, §5
smiles,measurement,setting,value
Cn1c(C(F)(F)F)cc(=O)n(-c2cc(C(=O)NN3CCCC3)c(Cl)cc2F)c1=O [Compound 1-11],crop damage rating CORN,[1]; 63 g ai/ha,0
same,crop damage rating CORN,[1]; 250 g ai/ha,50
same,crop damage rating RICE,[2]; 63 g ai/ha,5
same,crop damage rating RICE,[2]; 250 g ai/ha,55
same,phytotoxicity rating ECHCO,[3]; 63 g ai/ha,70
same,phytotoxicity rating ECHCO,[3]; 250 g ai/ha,100
same,phytotoxicity rating CHEAL,[4]; 63 g ai/ha,90
same,phytotoxicity rating CHEAL,[4]; 250 g ai/ha,100
same,phytotoxicity rating DIGSA,[5]; 63 g ai/ha,40
same,phytotoxicity rating DIGSA,[5]; 250 g ai/ha,55
same,phytotoxicity rating IPOHE,[6]; 63 g ai/ha,100
same,phytotoxicity rating IPOHE,[6]; 250 g ai/ha,100
same,phytotoxicity rating AMARE,"[7]; 63 g ai/ha, scale 0-100 (0 no damage, 100 complete death)",100
same,phytotoxicity rating AMARE,"[7]; 250 g ai/ha, scale 0-100",100
same,phytotoxicity rating SETVI,[8]; 63 g ai/ha,50
same,phytotoxicity rating SETVI,[8]; 250 g ai/ha,55
same,phytotoxicity rating SORHA,[9]; 63 g ai/ha,70
same,phytotoxicity rating SORHA,[9]; 250 g ai/ha,80
same,phytotoxicity rating CASOB,[10]; 63 g ai/ha,15
same,phytotoxicity rating CASOB,[10]; 250 g ai/ha,80
same,phytotoxicity rating ABUTH,[11]; 63 g ai/ha,100
same,phytotoxicity rating ABUTH,[11]; 250 g ai/ha,100
same,phytotoxicity rating AMBEL,[12]; 63 g ai/ha,99
same,phytotoxicity rating AMBEL,[12]; 250 g ai/ha,100
same,phytotoxicity rating XANST,[13]; 63 g ai/ha,75
same,phytotoxicity rating XANST,[13]; 250 g ai/ha,100
same,phytotoxicity rating ECHCG,[14]; 63 g ai/ha,15
same,phytotoxicity rating ECHCG,[14]; 250 g ai/ha,99
same,phytotoxicity rating CHEAL,[15]; 63 g ai/ha,100
same,phytotoxicity rating CHEAL,[15]; 250 g ai/ha,100
same,phytotoxicity rating DIGSA,[16]; 63 g ai/ha,50
same,phytotoxicity rating DIGSA,[16]; 250 g ai/ha,100
same,phytotoxicity rating IPOHE,[17]; 63 g ai/ha,70
same,phytotoxicity rating IPOHE,[17]; 250 g ai/ha,100
same,phytotoxicity rating AMARE,[18]; 63 g ai/ha,100
same,phytotoxicity rating AMARE,[18]; 250 g ai/ha,100
same,phytotoxicity rating SETVI,[19]; 63 g ai/ha,50
same,phytotoxicity rating SETVI,[19]; 250 g ai/ha,100
same,phytotoxicity rating SORHA,[20]; 63 g ai/ha,35
same,phytotoxicity rating SORHA,[20]; 250 g ai/ha,99
same,phytotoxicity rating CASOB,[21]; 63 g ai/ha,70
same,phytotoxicity rating CASOB,[21]; 250 g ai/ha,99
same,phytotoxicity rating ABUTH,[22]; 63 g ai/ha,100
same,phytotoxicity rating ABUTH,[22]; 250 g ai/ha,100
same,phytotoxicity rating AMBEL,[23]; 63 g ai/ha,60
same,phytotoxicity rating AMBEL,[23]; 250 g ai/ha,98
same,phytotoxicity rating XANST,[24]; 63 g ai/ha,0
same,phytotoxicity rating XANST,[24]; 250 g ai/ha,40
same,crop damage rating CORN,[25]; 63 g ai/ha,35
same,crop damage rating CORN,[25]; 250 g ai/ha,95
same,crop damage rating RICE,[26]; 63 g ai/ha,65
same,crop damage rating RICE,[26]; 250 g ai/ha,65
